From patent US20240360134A1, “PYRAZOLOPYRIMIDINES AND THEIR USES AS PDGFR INHIBITORS” (priority 2021, published 2024)
pIC50: −log10 of the molar value.

Tests used:
[1] = target: Tb-labeled inactive PDGFRβ (Homo sapiens (Human), UniProt P09619); assay: biochemical; assay type: binding; conditions: read-out: PDGFR Lantha IC50
[2] = target: His6-TEV-PDGFRβ (557-1016) (Homo sapiens (Human), UniProt P09619); assay: PDGFRβ HTRF Assay; assay type: biochemical; conditions: 800 μM ATP, 0.5 μM TK-substrate biotin peptide, 30 min pre-incubation, 3 hours reaction; read-out: PDGFR HTRF IC50
Chain of His6-TEV-PDGFRβ (557-1016) (P09619 whole entry, looked up): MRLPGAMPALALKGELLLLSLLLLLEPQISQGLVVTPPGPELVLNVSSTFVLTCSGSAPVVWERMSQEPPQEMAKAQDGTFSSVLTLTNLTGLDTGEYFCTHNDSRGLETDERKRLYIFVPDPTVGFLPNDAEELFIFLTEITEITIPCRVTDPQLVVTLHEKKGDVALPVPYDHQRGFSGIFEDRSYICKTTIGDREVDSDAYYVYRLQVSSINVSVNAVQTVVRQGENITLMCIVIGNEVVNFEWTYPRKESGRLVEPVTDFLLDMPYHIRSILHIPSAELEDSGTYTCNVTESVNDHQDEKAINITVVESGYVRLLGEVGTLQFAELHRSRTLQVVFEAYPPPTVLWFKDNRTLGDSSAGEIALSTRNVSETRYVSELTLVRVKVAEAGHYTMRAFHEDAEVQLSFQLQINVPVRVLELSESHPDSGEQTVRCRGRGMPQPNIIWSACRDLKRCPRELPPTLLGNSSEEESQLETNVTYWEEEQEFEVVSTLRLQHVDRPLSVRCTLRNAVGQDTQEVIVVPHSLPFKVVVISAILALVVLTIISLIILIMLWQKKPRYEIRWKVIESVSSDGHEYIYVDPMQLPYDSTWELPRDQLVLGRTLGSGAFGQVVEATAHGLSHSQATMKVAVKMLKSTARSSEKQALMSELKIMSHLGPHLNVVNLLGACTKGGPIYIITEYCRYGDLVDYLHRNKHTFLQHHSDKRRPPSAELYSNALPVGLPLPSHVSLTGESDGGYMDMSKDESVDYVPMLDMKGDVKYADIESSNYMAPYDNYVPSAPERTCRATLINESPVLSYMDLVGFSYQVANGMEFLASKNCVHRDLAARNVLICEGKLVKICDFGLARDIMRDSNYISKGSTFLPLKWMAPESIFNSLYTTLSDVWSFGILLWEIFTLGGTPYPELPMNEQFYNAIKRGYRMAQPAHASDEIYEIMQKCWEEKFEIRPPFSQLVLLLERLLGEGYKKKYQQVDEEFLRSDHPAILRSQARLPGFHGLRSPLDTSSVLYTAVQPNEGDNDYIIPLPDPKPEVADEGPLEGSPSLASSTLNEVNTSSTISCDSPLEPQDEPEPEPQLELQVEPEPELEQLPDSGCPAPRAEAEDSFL
Procedure: Instrumentation: a. Compound liquid handling: LabCyte Echo; b. Reagent liquid handling: Thermo Scientific Multidrop Combi; c. BMG PHERAStar multilabel plate reader.
Protein Reagent: His6-TEV-PDGFRβ Protein Prep prepared at Accelagen.
Assay buffer stock solution, contains 50 mM Hepes, 10 mM MgCl2, 1 mM EGTA, and 0.01% Brij-35, 0.01% ovalbumin, 2 mM DTT at pH 7.5, in molecular biology grade water. Store at room temperature.
Assay buffer. Dilute 5× Kinase buffer 5-fold with molecular biology grade water and add DTT to 2 mM and ovalbumin to 0.1 mg/mL (or 0.01%).
2× protein solution. Make a working solution of […] PDGFRβ in assay buffer. Keep on ice until use to maintain enzyme stability.
2× substrate solution. Make a working solution of 1.6 mM ATP and 1 μM TK-substrate biotin peptide in assay buffer. 3× quench/detection solution.
Step 2. PDGFRβ E+I pre-incubation: Add 2 μL 2× protein solution to columns 1-24 using the Multidrop Combi. Centrifuge at 1000 rpm for 1 min. Incubate 30 min at RT
Step 2. Enzymatic reaction: Add 2 μL substrate solution to columns 1-24 to initiate the reaction using the Multidrop Combi; cover/seal the assay plate to reduce evaporation. Centrifuge at 1000 rpm for 1 min. Incubate at room temperature for 3 hours.
Final concentrations of components in PDGFRp cascade assay:
0.5 μM TK-substrate biotin peptide
Step 3. Quench/Detection: Add 2 μl 3× quench/detection solution to columns 1-24 using the Multidrop Combi; cover/seal the plate. Centrifuge 1 min 1000 rpm. Incubate at RT for 60 min.
HTRF ratio values calculated by the instrument (Ratio is acceptor counts/donor counts*10,000) is exported from the plate reader and used in data analysis. The exported data will be used to calculate 1) compound activity and 2) assay statistics. […] Assay statistics can include Robust Z′ and Signal to Background.
% Inhibition Calculation: Percent inhibition will be calculated for sample wells based on the equation: […]
IC50 Calculation: For IC50 determination, full 11-point dose response data will be processed using the following equation: […]

[3] = target: VEGFR2, unphosphorylated (Homo sapiens (Human), UniProt P35968); assay: VEGFR ADP GLO assay; assay type: biochemical; conditions: 5 nM VEGFR2, 1.2 mM ATP, 1 mg/mL Srctide, 180 min
Chain of VEGFR2, unphosphorylated (P35968 whole entry, looked up): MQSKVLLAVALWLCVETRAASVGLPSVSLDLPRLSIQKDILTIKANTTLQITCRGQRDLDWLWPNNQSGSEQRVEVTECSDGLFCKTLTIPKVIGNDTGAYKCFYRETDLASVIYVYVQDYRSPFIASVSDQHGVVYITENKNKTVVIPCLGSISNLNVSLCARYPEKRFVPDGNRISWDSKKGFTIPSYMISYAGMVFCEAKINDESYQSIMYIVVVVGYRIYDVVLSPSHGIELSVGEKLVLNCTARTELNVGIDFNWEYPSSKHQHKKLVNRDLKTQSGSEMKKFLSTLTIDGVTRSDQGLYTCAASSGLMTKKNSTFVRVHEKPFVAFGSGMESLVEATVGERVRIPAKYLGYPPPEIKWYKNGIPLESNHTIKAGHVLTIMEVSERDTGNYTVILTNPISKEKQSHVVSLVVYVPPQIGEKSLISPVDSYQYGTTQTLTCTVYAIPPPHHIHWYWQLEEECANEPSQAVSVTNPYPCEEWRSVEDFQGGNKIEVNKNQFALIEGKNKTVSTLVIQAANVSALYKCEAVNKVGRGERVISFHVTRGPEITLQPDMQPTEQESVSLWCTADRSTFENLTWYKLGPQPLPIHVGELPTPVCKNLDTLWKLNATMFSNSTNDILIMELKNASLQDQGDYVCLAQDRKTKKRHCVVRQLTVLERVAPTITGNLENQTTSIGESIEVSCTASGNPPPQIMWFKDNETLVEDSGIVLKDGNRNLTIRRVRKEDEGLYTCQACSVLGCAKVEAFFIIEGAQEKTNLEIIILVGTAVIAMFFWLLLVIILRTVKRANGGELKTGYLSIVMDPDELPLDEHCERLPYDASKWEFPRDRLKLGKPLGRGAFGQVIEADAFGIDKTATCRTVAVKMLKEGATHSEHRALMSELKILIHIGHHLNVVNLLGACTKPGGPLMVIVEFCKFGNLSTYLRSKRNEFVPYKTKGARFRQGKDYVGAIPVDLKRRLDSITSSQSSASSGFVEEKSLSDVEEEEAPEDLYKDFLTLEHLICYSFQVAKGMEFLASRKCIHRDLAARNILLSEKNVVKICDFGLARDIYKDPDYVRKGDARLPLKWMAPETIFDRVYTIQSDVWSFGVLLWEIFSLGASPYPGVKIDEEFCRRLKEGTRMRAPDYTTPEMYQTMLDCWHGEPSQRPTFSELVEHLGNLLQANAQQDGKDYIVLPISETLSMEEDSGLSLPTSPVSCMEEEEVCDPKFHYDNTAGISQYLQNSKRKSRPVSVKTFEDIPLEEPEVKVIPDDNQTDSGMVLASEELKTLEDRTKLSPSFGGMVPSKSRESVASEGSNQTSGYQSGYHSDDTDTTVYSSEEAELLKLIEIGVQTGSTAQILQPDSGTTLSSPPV
In short: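 Unphosphorylated kinase (10 nM 2× solution) pre-incubated 30 min at RT with compounds (11-point, 3-fold, top 10 µM), then reacted 180 min with srctide and ATP (2×: 2 mg/mL, 2.4 mM) in HEPES pH 7.5 buffer. ADP read by luminescence. IC50 from 4-parameter fit, normalized to DMSO and 1 µM TAK-593.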

[4] = target: PDGFRβ (Rattus norvegicus (Rat), UniProt Q05030); assay: PDGFRβ Cellular Assay (PDGFRb P-Y751 HTRF, PDGF-BB stimulated A10 cells); assay type: cell-based; conditions: A10 cells, 3 hours compound, 15 ng/mL PDGFbb for 10 minutes; read-out: PDGFR Cellular IC50
Chain of PDGFRβ (Q05030 whole entry, looked up): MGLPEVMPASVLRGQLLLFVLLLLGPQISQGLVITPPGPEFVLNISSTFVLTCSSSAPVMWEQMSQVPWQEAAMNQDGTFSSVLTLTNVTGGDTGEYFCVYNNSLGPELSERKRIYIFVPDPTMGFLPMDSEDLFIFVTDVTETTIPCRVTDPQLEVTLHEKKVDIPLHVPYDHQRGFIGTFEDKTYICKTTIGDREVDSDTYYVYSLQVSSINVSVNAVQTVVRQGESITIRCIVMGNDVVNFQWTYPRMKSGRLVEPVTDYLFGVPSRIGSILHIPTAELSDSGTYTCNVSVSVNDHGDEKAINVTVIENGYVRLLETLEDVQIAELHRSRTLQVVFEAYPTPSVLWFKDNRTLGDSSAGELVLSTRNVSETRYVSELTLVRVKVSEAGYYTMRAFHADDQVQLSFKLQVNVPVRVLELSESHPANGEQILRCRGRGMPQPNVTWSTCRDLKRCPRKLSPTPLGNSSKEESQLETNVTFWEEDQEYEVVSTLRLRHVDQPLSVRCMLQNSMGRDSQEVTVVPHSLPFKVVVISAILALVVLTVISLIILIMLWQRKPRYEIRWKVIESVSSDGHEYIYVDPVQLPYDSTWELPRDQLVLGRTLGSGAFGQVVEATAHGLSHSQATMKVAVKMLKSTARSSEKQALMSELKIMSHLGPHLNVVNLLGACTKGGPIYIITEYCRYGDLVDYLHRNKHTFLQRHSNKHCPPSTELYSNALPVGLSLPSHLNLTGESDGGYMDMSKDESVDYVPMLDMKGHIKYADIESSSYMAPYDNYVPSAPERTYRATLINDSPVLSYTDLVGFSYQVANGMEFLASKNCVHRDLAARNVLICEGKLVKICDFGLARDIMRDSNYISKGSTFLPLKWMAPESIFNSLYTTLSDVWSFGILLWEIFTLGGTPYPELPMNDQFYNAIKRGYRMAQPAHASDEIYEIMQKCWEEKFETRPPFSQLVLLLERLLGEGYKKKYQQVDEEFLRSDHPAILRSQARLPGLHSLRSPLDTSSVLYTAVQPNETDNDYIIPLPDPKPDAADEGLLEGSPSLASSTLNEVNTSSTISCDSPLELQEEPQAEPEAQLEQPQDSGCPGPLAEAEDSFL
In short: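 Rat A10 cells plated overnight were treated with compound for 3 h, stimulated with rat PDGF-BB (working stock 100 ng/mL in 10% FBS medium) for 10 min, then lysed.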

Chain of Tb-labeled inactive PDGFRβ (P09619 whole entry, looked up): as the sequence (P09619 whole entry, looked up) above

Row | Structure (SMILES) | pIC50 [1] | pIC50 [2] | pIC50 [3] | pIC50 [4]
1 | CC[C@@H]1CN(CCNC(=O)c2cnc(C)c(Nc3nn(C)c4nc(Nc5ccnc(N6CCC(CCO)CC6)c5)ncc34)c2)CCO1 [Example 113, (R)—N-(2-(2-ethylmorpholino)ethyl)-5-((6-((2-(4-(2-hydroxyethyl)piperidin-1-yl)pyridin-4-yl)amino)-1-methyl-1H-pyrazolo[3,4-d]pyrimidin-3-yl)amino)-6-methylnicotinamide] | 8.17 | 9.03 | < 5.12 | 6.94
2 | Cc1cc(C(=O)NCCN2CCCOCC2)sc1Nc1nn(C)c2nc(Nc3cnn(C)c3)ncc12 [Example 62, N-(2-(1,4-oxazepan-4-yl)ethyl)-4-methyl-5-((1-methyl-6-((1-methyl-1H-pyrazol-4-yl)amino)-1H-pyrazolo[3,4-d]pyrimidin-3-yl)amino)thiophene-2-carboxamide] | 7.92 | 9.08 | < 5.12 | 7.19
3 | Cc1ncc(NC(=O)CN2CC[C@H](C)C2)cc1Nc1nn(C)c2nc(Nc3cnn(C)c3)ncc12 [Example 140, (S)—N-(6-methyl-5-((1-methyl-6-((1-methyl-1H-pyrazol-4-yl)amino)-1H-pyrazolo[3,4-d]pyrimidin-3-yl)amino)pyridin-3-yl)-2-(3-methylpyrrolidin-1-yl)acetamide] | 8.80 | 9.64 | < 5.12 | 8.66
4 | Cc1ccc(C(=O)NCCN2CCC[C@@H]2C)cc1Nc1nn(C)c2nc(Nc3cnn(C)c3)ncc12 [Example 65, (S)-4-methyl-3-((1-methyl-6-((1-methyl-1H-pyrazol-4-yl)amino)-1H-pyrazolo[3,4-d]pyrimidin-3-yl)amino)-N-(2-(2-methylpyrrolidin-1-yl)ethyl)benzamide] | 8.68 | 9.66 | 5.62 | 8.00
5 | CC(=O)Nc1cccc(Nc2ncc3c(Nc4cc(C(=O)NCCN5CCCC5(C)C)cnc4C)nn(C)c3n2)c1 [Example 98, 5-((6-((3-acetamidophenyl)amino)-1-methyl-1H-pyrazolo[3,4-d]pyrimidin-3-yl)amino)-N-(2-(2,2-dimethylpyrrolidin-1-yl)ethyl)-6-methylnicotinamide] | 7.92 | 8.70 | < 5.12 | 6.14
6 | Cc1ncc(NC(=O)C2(C(=O)N3CCNCC3)CC2)cc1Nc1nn(C)c2nc(Nc3cnn(C)c3)ncc12 [Example 117, N-(6-methyl-5-((1-methyl-6-((1-methyl-1H-pyrazol-4-yl)amino)-1H-pyrazolo[3,4-d]pyrimidin-3-yl)amino)pyridin-3-yl)-1-(piperazine-1-carbonyl) cyclopropanecarboxamide] | 6.83 | 8.37 | < 5.12 | < 5.70
7 | Cc1ncc(NC(=O)CN2CCC[C@@H]2C)cc1Nc1nn(C)c2nc(Nc3cn(C)cn3)ncc12 [Example 142, (S)—N-(6-methyl-5-((1-methyl-6-((1-methyl-1H-imidazol-4-yl)amino)-1H-pyrazolo[3,4-d]pyrimidin-3-yl)amino)pyridin-3-yl)-2-(2-methylpyrrolidin-1-yl)acetamide] | 6.97 | 8.33 | < 5.12 | 7.87
8 | COCCn1cc(Nc2ncc3c(Nc4cc(NC(=O)CN5CCC6(CC6)C5)cnc4C)nn(C)c3n2)cn1 [Example 124, N-(5-((6-((1-(2-methoxyethyl)-1H-pyrazol-4-yl)amino)-1-methyl-1H-pyrazolo[3,4-d]pyrimidin-3-yl)amino)-6-methylpyridin-3-yl)-2-(5-azaspiro[2.4]heptan-5-yl)acetamide] | 8.80 | 9.46 | 5.31 | 8.37
9 | Cc1ncc(C(=O)NCCN(C)C2CCOCC2)cc1Nc1nn(C)c2nc(Nc3cncnc3)ncc12 [Example 10, 6-methyl-N-(2-(methyl(tetrahydro-2H-pyran-4-yl)amino)ethyl)-5-((1-methyl-6-(pyrimidin-5-ylamino)-1H-pyrazolo[3,4-d]pyrimidin-3-yl)amino)nicotinamide] | 8.00 | 9.20 | < 5.12 | 6.69
10 | Cc1nn(C)cc1Nc1ncc2c(Nc3cc(C(=O)NCCN4CCCC4(C)C)cnc3C)nn(C)c2n1 [Example 161, 5-((6-((1,3-dimethyl-1H-pyrazol-4-yl)amino)-1-methyl-1H-pyrazolo[3,4-d]pyrimidin-3-yl)amino)-N-(2-(2,2-dimethylpyrrolidin-1-yl)ethyl)-6-methylnicotinamide] | 7.88 | 8.78 | < 5.12 | 7.61
11 | Cc1nn(C)cc1Nc1ncc2c(Nc3cc(C(=O)NCCN4CCC[C@@H]4C)cnc3C)nn(C)c2n1 [Example 160, (S)-5-((6-((1,3-dimethyl-1H-pyrazol-4-yl)amino)-1-methyl-1H-pyrazolo[3,4-d]pyrimidin-3-yl)amino)-6-methyl-N-(2-(2-methylpyrrolidin-1-yl)ethyl)nicotinamide] | 7.95 | 8.81 | < 5.12 | 7.27
12 | COC1CN(CC(=O)Nc2cnc(C)c(Nc3nn(C)c4nc(Nc5cnn(C)c5)ncc34)c2)C1 [Example 137, 2-(3-methoxyazetidin-1-yl)-N-(6-methyl-5-((1-methyl-6-((1-methyl-1H-pyrazol-4-yl)amino)-1H-pyrazolo[3,4-d]pyrimidin-3-yl)amino)pyridin-3-yl)acetamide] | 8.35 | 9.31 | < 5.12 | 7.68
13 | Cc1ncc(C(=O)NCCN(CCO)C2CCCC2)cc1Nc1nn(C)c2nc(Nc3cnn(C)c3)ncc12 [Example 97, N-(2-(cyclopentyl(2-hydroxyethyl)amino)ethyl)-6-methyl-5-((1-methyl-6-((1-methyl-1H-pyrazol-4-yl)amino)-1H-pyrazolo[3,4-d]pyrimidin-3-yl)amino)nicotinamide] | 8.62 | 9.34 | < 5.12 | 6.99
14 | Cc1ncc(C(=O)NCCN2CCC23CCC3)cc1Nc1nn(C)c2nc(Nc3cnn(C)c3)ncc12 [Example 149, N-(2-(1-azaspiro[3.3]heptan-1-yl)ethyl)-6-methyl-5-((1-methyl-6-((1-methyl-1H-pyrazol-4-yl)amino)-1H-pyrazolo [3,4-d]pyrimidin-3-yl)amino)nicotinamide] | 8.66 | 9.44 | 5.18 | 7.60
15 | COC1CCN(CC(=O)Nc2cnc(C)c(Nc3nn(C)c4nc(Nc5cnn(C)c5)ncc34)c2)CC1 [Example 134, 2-(4-methoxypiperidin-1-yl)-N-(6-methyl-5-((1-methyl-6-((1-methyl-1H-pyrazol-4-yl)amino)-1H-pyrazolo[3,4-d]pyrimidin-3-yl)amino)pyridin-3-yl)acetamide] | 8.51 | 9.37 | < 5.12 | 8.13
16 | Cc1ncc(C(=O)NCCN2C3CCC2CC3)cc1Nc1nn(C)c2nc(Nc3cnn(C)c3)ncc12 [Example 153, N-(2-(7-azabicyclo[2.2.1]heptan-7-yl)ethyl)-6-methyl-5-((1-methyl-6-((1-methyl-1H-pyrazol-4-yl)amino)-1H-pyrazolo[3,4-d]pyrimidin-3-yl)amino)nicotinamide] | 8.89 | 9.59 | < 5.12 | 6.95
17 | COCCCN(CCNC(=O)c1cnc(C)c(Nc2nn(C)c3nc(Nc4cnn(C)c4)ncc23)c1)C1CCC1 [Example 93, N-(2-(cyclobutyl(3-methoxypropyl)amino)ethyl)-6-methyl-5-((1-methyl-6-((1-methyl-1H-pyrazol-4-yl)amino)-1H-pyrazolo[3,4-d]pyrimidin-3-yl)amino)nicotinamide] | 8.42 | 9.36 | < 5.12 | 7.97
